Like-named read-outs stand apart in the source and are kept apart here.
Key:
[1] = tested on: HCT116 cells; assay: MTT assay; assay type: cell-based; conditions: Homo sapiens, HCT116 cells, 72 hours
Outline: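 Read-out: MTT (0.5 mg/ml final, 4 h) after solubilization in 50% DMF/20% SDS, pH 4.7, with OD translated into cell number via the line's growth curve. Compound treatment lasted 72 h at 37 °C in 5% CO2, starting a day after plating.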

[2] = target: T1, cloned recombinant human HDAC-1 (Homo sapiens, UniProt Q13547); assay: Human HDAC-1 enzyme inhibition, Assay 1 ([3H]-acetylated histone substrate, scintillation counting); assay type: biochemical
T1 construct: made in house; host or cells: Baculovirus insect cell expression system
Outline: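 Activity read as [3H]-acetic acid liberated from labeled substrate, ethyl acetate-extracted and scintillation-counted. Compounds preincubated 30 min at 4° C. with baculovirus-expressed, purified human HDAC-1. Dose-response curves give IC50 as concentration producing fifty percent of maximal inhibition.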

[3] = tested on: acetylated histone H-4 in T24 human bladder cancer cells; assay: Histone H4 acetylation in whole cells by immunoblots; assay type: cell-based; conditions: 16 h
Experimental: T24 human bladder cancer cells growing in culture were incubated with HDAC inhibitors for 16 h. […] of total histone protein was loaded onto SDS/PAGE and transferred to nitrocellulose membranes. Membranes were probed with polyclonal antibodies specific for acetylated histone H-4 (Upstate Biotech Inc.), followed by horse radish peroxidase conjugated secondary antibodies (Sigma). Enhanced Chemiluminescence (ECL) (Amersham) detection was performed using Kodak films (Eastman Kodak). Acetylated H-4 signal was quantified by densitometry.

[4] = Table 5c, read-out: Human HDAC-1 IC50
[5] = T-24, Table 5c, read-out: H4Ac (T24) EC50
[6] = Table 5F, read-out: Human HDAC-1 IC50
[7] = T-24, Table 5F, read-out: H4 Ac (T24) EC50
[8] = Table 5a, read-out: Human HDAC-1 IC50
[9] = T-24, Table 5a, read-out: H4Ac (T24) EC50
[10] = Table 5d, read-out: HDAC-1 IC50
[11] = T-24, Table 5d, read-out: H4Ac(T24) EC50

T1 sequence (Q13547 whole entry): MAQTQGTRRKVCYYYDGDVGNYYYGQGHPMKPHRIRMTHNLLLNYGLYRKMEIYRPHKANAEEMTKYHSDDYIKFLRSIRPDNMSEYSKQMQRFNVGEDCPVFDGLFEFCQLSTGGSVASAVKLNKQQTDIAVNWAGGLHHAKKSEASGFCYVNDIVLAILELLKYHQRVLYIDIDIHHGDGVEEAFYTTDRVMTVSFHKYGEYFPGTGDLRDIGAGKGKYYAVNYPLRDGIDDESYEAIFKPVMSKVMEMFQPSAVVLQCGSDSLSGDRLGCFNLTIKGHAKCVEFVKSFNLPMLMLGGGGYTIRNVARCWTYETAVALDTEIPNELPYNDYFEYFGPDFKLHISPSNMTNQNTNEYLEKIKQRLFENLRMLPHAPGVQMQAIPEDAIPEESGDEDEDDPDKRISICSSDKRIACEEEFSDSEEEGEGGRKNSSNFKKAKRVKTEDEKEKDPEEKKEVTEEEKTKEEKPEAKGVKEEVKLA

Compound: Nc1ccccc1NC(=O)/C=C/c1ccc(NCc2cc(F)cc(F)c2)nc1 [Cpd 100, N-(2-aminophenyl)-3-[6-(3,5-difluoro-benzylamino)-pyridin-3-yl]-acrylamide]
- IC50 ([1]; HCT-116, 72 h, Table 5c): 3 µM
- IC50 [2, 4]: 4 µM
- EC50 [3, 5]: 5 µM

Compound: Nc1nc(NC2Cc3ccccc3C2)nc(OCc2ccc(C(=O)Nc3ccccc3N)cc2)n1 [Cpd 207]
- IC50 ([1]; HCT-116, 72 h, Table 5b): 0.6 µM
- IC50 ([2]; Table 5b, read-out: Human HDAC-1 IC50): 0.4 µM
- EC50 ([3]; T-24, Table 5b, read-out: H4Ac (T24) EC50): 2 µM

Compound: CN(C)CCn1c(=O)n(Cc2ccc(C(=O)Nc3ccccc3N)cc2)c(=O)c2ccccc21 [Cpd 340, N-(2-Amino-phenyl)-4-[1-(2-dimethylamino-ethyl)-2,4-dioxo-1,4-dihydro-2H-quinazolin-3-ylmethyl]-benzamide]
- IC50 ([1]; HCT-116, 72 h, Table 5F): 1 µM
- IC50 [2, 6]: 2 µM
- EC50 [3, 7]: 1 µM

Compound: Nc1ccccc1NC(=O)c1ccc(CNc2nc(NC3CC3)nc(NC3Cc4ccccc4C3)n2)cc1 [Cpd 19]
- IC50 ([1]; HCT-116, 72 h, Table 5a): 1 µM
- IC50 [2, 8]: 0.9 µM
- EC50 [3, 9]: 1 µM

Compound: Nc1ccccc1NC(=O)c1ccc(CSc2ccccn2)cc1 [Cpd 381]
- IC50 ([1]; HCT-116, 72 h, Table 5F): 1 µM
- IC50 [2, 6]: 2 µM
- EC50 [3, 7]: 2 µM

Compound: COc1cc(NC(C)c2ccc(/C=C/C(=O)Nc3ccccc3N)cc2)cc(OC)c1OC (stereo not drawn) [Cpd 518, N-(2-Amino-phenyl)-3-{4-[1-(3,4,5-trimethoxy-phenylamino)-ethyl]-phenyl}-acrylamide]
- IC50 ([1]; HCT-116, Table 5d): 2 µM
- IC50 [2, 10]: 4 µM
- EC50 [3, 11]: 5 µM

Compound: CC(=O)Nc1sc(Cc2ccc(C(=O)Nc3ccccc3N)cc2)cc1C#N [Cpd 359, 4-(5-Acetylamino-4-cyano-thiophen-2-ylmethyl)-N-(2-amino-phenyl)-benzamide]
- IC50 ([1]; HCT-116, 72 h, Table 5F): 0.3 µM
- IC50 [2, 6]: 2 µM
- EC50 [3, 7]: 1 µM

Compound: CN(C)c1nc2cc(NCc3ccc(C(=O)Nc4ccccc4N)cc3)ccc2s1 [Cpd 448, N-(2-Amino-phenyl)-4-[(2-dimethylamino-benzothiazol-5-ylamino)-methyl]-benzamide]
- IC50 ([1]; HCT-116, 72 h, Table 5F): 0.2 µM
- IC50 [2, 6]: 3 µM
- EC50 [3, 7]: 2 µM

Compound: Cc1sc2ncn(Cc3ccc(C(=O)Nc4ccccc4N)cc3)c(=O)c2c1C [compound 259, N-(2-Amino-phenyl)-4-(5,6-dimethyl-4-oxo-4H-thieno[2,3-d]pyrimidin-3-ylmethyl)-benzamide]
- IC50 ([1]; HCT-116, 72 h, Table 5F): 0.3 µM
- IC50 [2, 6]: 3 µM
- EC50 [3, 7]: 1 µM

Compound: Cc1c(Cc2ccc(C(=O)Nc3ccccc3N)cc2)sc(NC(=O)Nc2ccccc2)c1C#N [Cpd 361, N-(2-Amino-phenyl)-4-[4-cyano-3-methyl-5-(3-phenyl-ureido)-thiophen-2-ylmethyl]-benzamide]
- IC50 ([1]; HCT-116, 72 h, Table 5F): 0.5 µM
- IC50 [2, 6]: 2 µM
- EC50 [3, 7]: 1 µM

Compound: Cc1cc(C)nc(OCc2ccc(C(=O)Nc3ccccc3N)cc2)n1 [Cpd 384, N-(2-Amino-phenyl)-4-(4,6-dimethyl-pyrimidin-2-yloxymethyl)-benzamide]
- IC50 ([1]; HCT-116, 72 h, Table 5F): 2 µM
- IC50 [2, 6]: 3 µM
- EC50 [3, 7]: 5 µM

Compound: COc1ccc(NCc2ccc(C(=O)Nc3cc(F)c(F)cc3N)cc2)cc1OC [Cpd 454, N-(2-Amino-4,5-difluoro-phenyl)-4-[(3,4-dimethoxy-phenylamino)-methyl]-benzamide]
- IC50 ([1]; HCT-116, 72 h, Table 5F): 2 µM
- IC50 [2, 6]: 4 µM
- EC50 [3, 7]: 5 µM

Compound: COc1ccc2[nH]c(SCc3ccc(C(=O)Nc4ccccc4O)cc3)nc2c1 [compound 311]
- IC50 ([1]; HCT-116, 72 h, Table 5F): 0.7 µM
- IC50 [2, 6]: 0.9 µM
- EC50 [3, 7]: 1 µM

Compound: CNc1nc2ccc(NCc3ccc(C(=O)Nc4ccccc4N)cc3)cc2n1C [Cpd 580]
- IC50 ([1]; HCT-116, 72 h, Table 5F): 0.3 µM
- IC50 [2, 6]: 4 µM
- EC50 [3, 7]: < 1 µM

Compound: Nc1nc(NCc2ccc(C(=O)Nc3ccccc3N)cc2)nc(N2CCN(c3ccccc3)CC2)n1 [Cpd 11]
- IC50 ([1]; HCT-116, 72 h, Table 5a): 0.6 µM
- IC50 [2, 8]: 2 µM
- EC50 [3, 9]: 2 µM

Compound: COc1cccc(NCc2ccc(C(=O)Nc3ccccc3N)cc2)n1 [Cpd 390, N-(2-Amino-phenyl)-4-[(6-methoxy-pyridin-2-ylamino)-methyl]-benzamide]
- IC50 ([1]; HCT-116, 72 h, Table 5F): 0.8 µM
- IC50 [2, 6]: 2 µM
- EC50 [3, 7]: 5 µM

Compound: COc1ccc(N(Cc2ccc(C(=O)Nc3ccccc3N)cc2)C(=O)Nc2ccc(Oc3ccccc3)cc2)cc1OC [Cpd 374, N-(2-Amino-phenyl)-4-[1-(3,4-dimethoxy-phenyl)-3-(4-phenoxy-phenyl)-ureidomethyl]-benzamide]
- IC50 ([1]; HCT-116, 72 h, Table 5F): 0.3 µM
- IC50 [2, 6]: 2.5 µM
- EC50 [3, 7]: 1 µM

Compound: Nc1ccccc1NC(=O)/C=C/c1ccc(NC(=O)OCc2cccnc2)cc1 [Cpd 55b]
- IC50 ([1]; HCT-116, 72 h, Table 5c): 8 µM
- IC50 [2, 4]: 3 µM
- EC50 [3, 5]: 3 µM

Compound: COc1ccccc1NCc1ccc(C(=O)Nc2ccccc2N)cc1 [Cpd 429, N-(2-Amino-phenyl)-4-[(2-methoxy-phenylamino)-methyl]-benzamide]
- IC50 ([1]; HCT-116, 72 h, Table 5F): 0.9 µM
- IC50 [2, 6]: 4 µM
- EC50 [3, 7]: 1 µM

Compound: COc1ccc(CCNc2ccc(/C=C/C(=O)Nc3ccccc3N)cn2)cc1 [Cpd 95, N-(2-aminophenyl)-3-{6-[2-(4-methoxy-phenyl)-ethylamino]-pyridin-3-yl}-acrylamide]
- IC50 ([1]; HCT-116, 72 h, Table 5c): 2 µM
- IC50 [2, 4]: 3 µM
- EC50 [3, 5]: 10 µM

Compound: Cn1c2ccc(NCc3ccc(C(=O)Nc4ccccc4N)cc3)cc2c2nc3ccccc3nc21 [Cpd 462]
- IC50 ([1]; HCT-116, 72 h, Table 5F): 0.3 µM
- IC50 [2, 6]: 4 µM
- EC50 [3, 7]: 1 µM

Compound: CC1(C)C2CC[C@@](C)(C2)[C@H]1Nc1nc(N)nc(NCc2ccc(C(=O)Nc3ccccc3N)cc2)n1 [Cpd 17]
- IC50 ([1]; HCT-116, 72 h, Table 5a): 1 µM
- IC50 [2, 8]: 0.9 µM
- EC50 [3, 9]: 2 µM

Compound: CN1CCN(c2ccc(NCc3ccc(/C=C/C(=O)Nc4ccccc4N)cc3)cc2C(F)(F)F)CC1 [Cpd 526]
- IC50 ([1]; HCT-116, Table 5d): 0.8 µM
- IC50 [2, 10]: 2 µM
- EC50 [3, 11]: 1 µM

Compound: Nc1nc(CC(=O)N2CCN(Cc3ccc4c(c3)OCO4)CC2)nc(NCc2ccc(C(=O)Nc3ccccc3N)cc2)n1 [18b]
- IC50 ([1]; HCT-116, 72 h, Table 5a): 5 µM
- IC50 [2, 8]: 0.6 µM
- EC50 [3, 9]: 10 µM

Compound: Nc1ccccc1NC(=O)c1ccc(CNc2cccc(OC(F)(F)F)c2)cc1 [Cpd 423, N-(2-Amino-phenyl)-4-[(3-trifluoromethoxy-phenylamino)-methyl]-benzamide]
- IC50 ([1]; HCT-116, 72 h, Table 5F): 1 µM
- IC50 [2, 6]: 0.5 µM
- EC50 [3, 7]: 3 µM

Compound: Nc1nc(NCCc2ccccc2F)nc(NCc2ccc(C(=O)Nc3ccccc3N)cc2)n1 [Cpd 24, 4-({4-Amino-6-[2-(2-fluoro-phenyl)-ethylamino]-[1,3,5]triazin-2-ylamino)-methyl)-N-(2-amino-phenyl)-benzamide]
- IC50 ([1]; HCT-116, 72 h, Table 5a): 0.6 µM
- IC50 [2, 8]: 3 µM
- EC50 [3, 9]: 1 µM

Compound: CCn1c(=O)n(Cc2ccc(C(=O)Nc3ccccc3N)cc2)c(=O)c2cc(Br)ccc21 [Cpd 344, N-(2-Amino-phenyl)-4-(6-bromo-1-ethyl-2,4-dioxo-1,4-dihydro-2H-quinazolin-3-ylmethyl)-benzamide]
- IC50 ([1]; HCT-116, 72 h, Table 5F): 0.2 µM
- IC50 [2, 6]: 0.5 µM
- EC50 [3, 7]: 1 µM

Compound: COc1cc(OC)nc(NCc2ccc(C(=O)Nc3ccccc3N)cc2)n1 [Cpd 169]
- IC50 ([1]; HCT-116, 72 h, Table 5E): 0.7 µM
- IC50 ([2]; Table 5E, read-out: Human HDAC-1 IC50): 0.3 µM
- EC50 ([3]; T-24, Table 5E, read-out: H4 Ac (T24) EC50): 1 µM

Compound: COc1ccc(NCc2ccc(C(=O)Nc3ccccc3N)cc2)cn1 [Cpd 421]
- IC50 ([1]; HCT-116, 72 h, Table 5F): 0.6 µM
- IC50 [2, 6]: 4 µM
- EC50 [3, 7]: 1 µM

Compound: Nc1ccccc1NC(=O)c1ccc(COc2ccc3ccccc3n2)cc1 [Cpd 396, N-(2-Amino-phenyl)-4-(quinolin-2-yloxymethyl)-benzamide]
- IC50 ([1]; HCT-116, 72 h, Table 5F): 0.7 µM
- IC50 [2, 6]: 2 µM
- EC50 [3, 7]: 5 µM

Compound: Nc1ccccc1NC(=O)c1ccc(CNc2nc(Cl)cc(NCc3cccnc3)n2)cc1 [Cpd 420, N-(2-Amino-phenyl)-4-({4-chloro-6-[(pyridin-3-ylmethyl)-amino]-pyrimidin-2-ylamino]-methyl)-benzamide]
- IC50 ([1]; HCT-116, 72 h, Table 5F): 0.7 µM
- IC50 [2, 6]: 3 µM
- EC50 [3, 7]: 1 µM

Compound: COc1ccc(NCc2ccc3oc(C(=O)Nc4ccccc4N)cc3c2)cc1OC [compound 587, 5-[(3,4-Dimethoxy-phenylamino)-methyl]-benzofuran-2-carboxylic acid (2-amino-phenyl)-amide]
- IC50 ([1]; HCT-116, 72 h, Table 5F): 0.8 µM
- IC50 [2, 6]: 5 µM
- EC50 [3, 7]: 2 µM

Compound: Cc1c(Cc2ccc(C(=O)Nc3ccccc3N)cc2)sc(NC(=O)c2ccccc2)c1C#N [Cpd 360, 4-(5-Benzoylamino-4-cyano-3-methyl-thiophen-2-ylmethyl)-N-(2-amino-phenyl)-benzamide]
- IC50 ([1]; HCT-116, 72 h, Table 5F): 0.2 µM
- IC50 [2, 6]: 5 µM
- EC50 [3, 7]: 1 µM

Compound: Nc1ccccc1NC(=O)c1ccc(CNCCc2c[nH]c3ccccc23)cc1 [Cpd 436]
- IC50 ([1]; HCT-116, 72 h, Table 5F): 0.8 µM
- IC50 [2, 6]: 5 µM
- EC50 [3, 7]: 5 µM

Compound: Nc1nc(NCc2ccc(C(=O)Nc3ccccc3N)cc2)nc(NCc2ccccn2)n1 [Cpd 12]
- IC50 ([1]; HCT-116, 72 h, Table 5a): 2 µM
- IC50 [2, 8]: 2 µM
- EC50 [3, 9]: 5 µM
